According to patent publication US6667387B1, “HCV core peptides” (priority 1992, dated 2003):

Tests used:
[1] = ELISA with seronegative / negative control sera (specificity); type: binding, human; conditions: Table 4B; negative serum
Procedure: (§1) Where peptides were to be coated directly, stock solutions of the peptides were diluted in sodium carbonate buffer, pH 9.6 and used to coat polystyrene microtiter plates at a peptide concentration of 2 to 5 micrograms per milliliter for 1 hour at 37° C.
(§2) In cases where biotinylated peptides were to be evaluated, plates were first coated with streptavidin in sodium carbonate buffer, pH 9.6 at a concentration of 3 micrograms per milliliter for 1 hour at 37° C. The plates were then washed to remove excess, unbound protein. A working solution of the biotinylated peptide at 1 microgram per milliliter in sodium carbonate buffer was then added to the wells of the microtiter plate and incubated for 1 hours at 37° C.
(§3) Once the plates had been coated with antigen, any remaining free binding sites on the plastic were blocked with casein. After washing, a dilution of the appropriate antisera, usually 1:100, was added to the wells of the plates and incubated for 1 hour at 37° C.
(§4) After washing to remove unbound material, specific antibody binding was detected by incubating the plates with goat anti-human immunoglobulin antibodies conjugated to the enzyme horseradish peroxidase. Following removal of unbound conjugate by washing, a solution containing H2O2 and 3,3′,5,5′-tetramethylbenzidine was added.
(§5) Reactions were stopped after a suitable interval by addition of sulfuric acid. […] Absorbance measurements were made at a wavelength of 450 nanometers and all data are expressed as an optical density value at this wavelength.
(§6) Unbiotinylated HCV peptide I was coated directly onto the wells of a polystyrene ELISA plate at a concentration of 3 micrograms per milliliter in sodium carbonate buffer, pH 9.6. Biotinylated HCV peptide I was bound to streptavidin-coated wells using a stock solution containing the peptide at a concentration of 1 microgram per milliliter. The resulting plates were then incubated in parallel with a panel of sera from HCV-seropositive donors. […] Two of the sera (8326 and 8244) recognize the biotinylated version of this peptide far better than the unbiotinylated version. The specificity of the antibody reaction is also reflected by the low optical density values obtained for 5 serum samples from uninfected donors (F88, F89, F76, F136, and F6).
To determine how well biotinylated peptides would function in a mixture when bound to streptavidin- or avidin-coated plates, two mixtures were made of the N-terminally biotinylated versions of the HIV-1 peptides TM-HIV-1 (hereabove referred to as 1a.1) and V3-nm (hereabove referred to as 1b.4), the HIV-2 peptide TM-HIV-2 (hereabove referred to as 2a), and the hepatitis C virus peptides II, IX, and XVIII. Mixture A contained each of the six biotinylated peptides at a concentration of 1 microgram per milliliter (6 micrograms per milliliter peptide, total) while in mixture B, each peptide was present at a concentration of 0.1 microgram per milliliter (0.6 microgram per milliliter peptide, total). The individual peptides were coated at a concentration of 1 microgram per milliliter. For purposes of comparison, mixtures A and B were also coated directly onto the wells of a microtiter plate. Samples from HIV-1, HIV-2, and HCV-seropositive donors were tested and compared to sera from seronegative blood donors. A cut-off absorbance value of 0.250 was used to determine whether a reaction was positive or negative. Absorbance values equal or greater than 0.250 were considered positive while absorbance values below this value were considered negative.

[2] = test system: antibodies in sera from HCV-seropositive donors; assay: ELISA with HCV antibody-positive sera (biotinylated peptides on streptavidin- or avidin-coated plates, unbiotinylated peptides coated directly); type: binding, human; conditions: for optical density (450 nm): Table 4B, 20-fold dilution; for PEPTIDE ELISA (O.D.): Table 12, biotinylated 20-mers
Procedure: as §1, §2, §3, §4, §5
The unbiotinylated peptides were adsorbed onto the wells of polystyrene microtiter plates at a concentration of 3 micrograms per milliliter.
The biotinylated peptides were bound at a concentration of 1 microgram per milliliter to streptavidin-coated microtiter plates. Sera known to contain antibodies to these peptides were used for the evaluation and were tested at a 20-fold dilution.
To investigate further the enhanced antibody recognition of biotinylated HCV peptides bound to streptavidin or avidin as compared to direct adsorption on plastic, the influence of peptide coating concentration was investigated. Three peptides (HCV peptides II, XI, and XVI) were coated in concentrations ranging from 10 nanograms per milliliter to 3 micrograms per milliliter in a volume of 200 microliters per microtiter plate well. For direct coating, the unbiotinylated versions of these peptides were used. The biotinylated versions of these peptides were used to coat wells to which streptavidin had previously been adsorbed. Sera known to contain antibodies to these peptides were used at a dilution of 1 to 100 to evaluate the magnitude of antibody binding.
as §6
To determine how well biotinylated peptides would function in a mixture when bound to streptavidin- or avidin-coated plates, two mixtures were made of the N-terminally biotinylated versions of the HIV-1 peptides TM-HIV-1 (hereabove referred to as 1a.1) and V3-nm (hereabove referred to as 1b.4), the HIV-2 peptide TM-HIV-2 (hereabove referred to as 2a), and the hepatitis C virus peptides II, IX, and XVIII. […]

Substance	optical density (450 nm) [1]	optical density (450 nm) ([2]; serum 1)	optical density (450 nm) ([2]; serum 2)	optical density (450 nm) ([2]; serum 6)	optical density (450 nm) ([2]; serum 8)	optical density (450 nm) ([2]; serum 10)	optical density (450 nm) ([2]; serum 26)	optical density (450 nm) ([2]; serum 83)	optical density (450 nm) ([2]; serum 88)	optical density (450 nm) ([2]; serum 89)	optical density (450 nm) ([2]; serum 91)	optical density (450 nm) ([2]; serum 95)	optical density (450 nm) ([2]; serum 99)	optical density (450 nm) ([2]; serum 100)	optical density (450 nm) ([2]; serum 104)	optical density (450 nm) ([2]; serum 105)	optical density (450 nm) ([2]; serum 110)	optical density (450 nm) ([2]; serum 111)	optical density (450 nm) ([2]; serum 112)	optical density (450 nm) ([2]; serum 113)	other results
Leu-Arg-Lys-Ser-Arg-Arg-Phe-Ala-Gln-Ala-Leu-Pro-Val-Trp-Ala-Arg-Pro-Asp-Tyr-Asn [Peptide XVI] (LRKSRRFAQALPVWARPDYN; printed: Leu-Arg-Lys-Ser-Arg-Arg-Phe-Ala-Gln-Ala-Leu-Pro-Val-Trp-Ala-Arg-Pro-Asp-Tyr-Asn)	0.067	2.435	1.239	1.595	1.599	2.847	1.522	2.221	2.519	1.530	2.169	1.484	2.045	1.637	0.942	2.186	1.484	1.465	1.084	2.535	optical density (450 nm) ([2]; serum 116): 1.918; optical density (450 nm) ([2]; serum 120): 2.332; optical density (450 nm) ([2]; serum 266): 2.262; optical density (450 nm) ([2]; serum 8247): 0.618; optical density (450 nm) ([2]; serum 11476): 2.197; optical density (450 nm) ([2]; serum 24758): 0.062; PEPTIDE ELISA (O.D.) ([2]; serum 0843): 1.444; PEPTIDE ELISA (O.D.) ([2]; serum 8240): 0.388; PEPTIDE ELISA (O.D.) ([2]; serum 8241): 2.456; PEPTIDE ELISA (O.D.) ([2]; serum 8242): 2.318; PEPTIDE ELISA (O.D.) ([2]; serum 8332): 2.130; PEPTIDE ELISA (O.D.) ([2]; serum 8339): 2.859; PEPTIDE ELISA (O.D.) ([2]; serum 8350): 2.249; PEPTIDE ELISA (O.D.) ([2]; serum 8377): 2.336; PEPTIDE ELISA (O.D.) ([2]; serum 8378): 1.602; PEPTIDE ELISA (O.D.) ([2]; serum 8388): 0.390
Leu-Arg-Lys-Ser-Arg-Arg-Phe-Ala-Gln-Ala-Leu-Pro-Val-Trp-Ala-Arg-Pro-Asp-Tyr-Asn [Unbiotinylated peptide XVI] (LRKSRRFAQALPVWARPDYN; printed: Leu-Arg-Lys-Ser-Arg-Arg-Phe-Ala-Gln-Ala-Leu-Pro-Val-Trp-Ala-Arg-Pro-Asp-Tyr-Asn)	0.063	1.038	0.616	0.100	0.329	1.033	0.053	0.912	1.187	0.495	0.197	0.109	0.814	0.474	0.205	0.313	0.762	0.193	0.253	0.833	optical density (450 nm) ([2]; serum 116): 0.058; optical density (450 nm) ([2]; serum 120): 0.964; optical density (450 nm) ([2]; serum 266): 0.712; optical density (450 nm) ([2]; serum 8247): 0.059; optical density (450 nm) ([2]; serum 11476): 0.068; optical density (450 nm) ([2]; serum 24758): 0.071
